This passage reports relative viability results from the supplement of paper PMC10307832.

What all share (experiment): relative viability (nuclei count vs DMSO), 5 days (fraction); higher = more cells survive
Compound in the assay “Shikonin + Navitoclax”: CC(C)=CC[C@@H](O)C1=CC(=O)c2c(O)ccc(O)c2C1=O [Shikonin] + CC1(C)CCC(c2ccc(Cl)cc2)=C(CN2CCN(c3ccc(C(=O)NS(=O)(=O)c4ccc(N[C@H](CCN5CCOCC5)CSc5ccccc5)c(S(=O)(=O)C(F)(F)F)c4)cc3)CC2)C1 [Navitoclax] (partner 0.5 µM)
The essentials: (§1)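 Five library-drug doses in √10 steps were combined with a fixed anchor-drug dose, or a single drug was given alone, by pin tool to lung cancer cell lines in 1536-well plates the day after seeding. Nuclei were stained and counted after 5 days. Relative viability is the nuclei count in treated wells over that in vehicle wells, taken as the median of duplicate plates.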

Compound in the assay “Shikonin + Dasatinib”: CC(C)=CC[C@@H](O)C1=CC(=O)c2c(O)ccc(O)c2C1=O [Shikonin] + Cc1nc(Nc2ncc(C(=O)Nc3c(C)cccc3Cl)s2)cc(N2CCN(CCO)CC2)n1 [Dasatinib] (partner 0.075 µM)
A digest of the protocol:
as §1

Compound in assay [1]: CC(C)N(CCCNC(=O)Nc1ccc(C(C)(C)C)cc1)C[C@H]1O[C@@H](n2ccc3c(N)ncnc32)[C@H](O)[C@@H]1O + Cc1cc(Nc2cc(N3CCN(C)CC3)nc(Sc3ccc(NC(=O)C4CC4)cc3)n2)n[nH]1 [Tozasertib] (partner 0.1 µM)
The essentials: as §1

Compound in assay [2]: CC(C)N(CCCNC(=O)Nc1ccc(C(C)(C)C)cc1)C[C@H]1O[C@@H](n2ccc3c(N)ncnc32)[C@H](O)[C@@H]1O + Nc1nc2[nH]cc(CCc3ccc(C(=O)N[C@@H](CCC(=O)O)C(=O)O)cc3)c2c(=O)[nH]1 [Pemetrexed] (partner 0.2 µM)
The essentials: as §1

With NCI-H2347, the relative viability in the assay with Shikonin + Navitoclax (first compound 0.01 µM) came out at 0.775; in the assay with Shikonin + Navitoclax (first compound 0.1 µM) it was 0.73; with Shikonin + Navitoclax (first compound 0.3162 µM), 0.781; with Shikonin + Navitoclax (first compound 1 µM) it was 0.798; in the assay with Shikonin + Dasatinib (first compound 0.01 µM), 0.268; with Shikonin + Dasatinib (first compound 0.1 µM), 0.351. The relative viability came to 0.296 in the assay with Shikonin + Dasatinib (first compound 0.3162 µM); 0.2 in the assay with Shikonin + Dasatinib (first compound 1 µM); 0.51 in assay [1] (first compound 0.08 µM); 0.492 in assay [1] (first compound 0.253 µM); 0.48 in assay [1] (first compound 0.8 µM); 0.539 in assay [1] (first compound 2.53 µM). Also, the relative viability in assay [1] (first compound 8 µM) was 0.654; in assay [2] (first compound 0.08 µM), 0.444; in assay [2] (first compound 0.253 µM) it was 0.411; in assay [2] (first compound 0.8 µM), 0.439; in assay [2] (first compound 2.53 µM), 0.441; in assay [2] (first compound 8 µM), 0.409.

Turning to NCI-H2405, the relative viability with Shikonin + Navitoclax (first compound 0.01 µM) stood at 0.962; with Shikonin + Navitoclax (first compound 0.1 µM) it was 0.922; with Shikonin + Navitoclax (first compound 0.3162 µM) it was 1.16; with Shikonin + Navitoclax (first compound 1 µM) it was 0.837; with Shikonin + Dasatinib (first compound 0.01 µM) it was 0.206; with Shikonin + Dasatinib (first compound 0.1 µM) it was 0.235. Besides, the relative viability with Shikonin + Dasatinib (first compound 0.3162 µM) was determined as 0.256; with Shikonin + Dasatinib (first compound 1 µM), 0.256; in assay [1] (first compound 0.08 µM), 0.706; in assay [1] (first compound 0.253 µM) it was 0.82; in assay [1] (first compound 0.8 µM), 0.783; in assay [1] (first compound 2.53 µM) it was 0.822. In addition, the relative viability in assay [1] (first compound 8 µM) stood at 0.703; in assay [2] (first compound 0.08 µM), 1.09; in assay [2] (first compound 0.253 µM) it was 1.08; in assay [2] (first compound 0.8 µM), 0.999; in assay [2] (first compound 2.53 µM), 1.01; in assay [2] (first compound 8 µM), 0.968.

For the cell line NCI-H3122, the relative viability is 1.03 with Shikonin + Navitoclax (first compound 0.01 µM); 1.09 with Shikonin + Navitoclax (first compound 0.1 µM); 1.05 in the assay with Shikonin + Navitoclax (first compound 0.3162 µM); 1.09 with Shikonin + Navitoclax (first compound 1 µM); 0.882 with Shikonin + Dasatinib (first compound 0.01 µM); 0.761 with Shikonin + Dasatinib (first compound 0.1 µM). The relative viability in the assay with Shikonin + Dasatinib (first compound 0.3162 µM) came out at 0.969; in the assay with Shikonin + Dasatinib (first compound 1 µM) it was 0.861; in assay [1] (first compound 0.08 µM), 0.477; in assay [1] (first compound 0.253 µM), 0.489; in assay [1] (first compound 0.8 µM), 0.382; in assay [1] (first compound 2.53 µM), 0.383. In addition, the relative viability in assay [1] (first compound 8 µM) stood at 0.353; in assay [2] (first compound 0.08 µM) it was 0.211; in assay [2] (first compound 0.253 µM), 0.194; in assay [2] (first compound 0.8 µM), 0.198; in assay [2] (first compound 2.53 µM), 0.192; in assay [2] (first compound 8 µM) it was 0.199.

With PC-3 [JPC-3], the relative viability with Shikonin + Navitoclax (first compound 0.01 µM) was determined as 0.758; with Shikonin + Navitoclax (first compound 0.1 µM), 0.848; with Shikonin + Navitoclax (first compound 0.3162 µM) it was 0.884; in the assay with Shikonin + Navitoclax (first compound 1 µM), 0.786; in the assay with Shikonin + Dasatinib (first compound 0.01 µM) it was 1.11; with Shikonin + Dasatinib (first compound 0.1 µM), 0.968. Moreover, the relative viability worked out at 1.1 in the assay with Shikonin + Dasatinib (first compound 0.3162 µM); 0.958 with Shikonin + Dasatinib (first compound 1 µM); 0.856 in assay [1] (first compound 0.08 µM); 0.976 in assay [1] (first compound 0.253 µM); 0.831 in assay [1] (first compound 0.8 µM); 0.851 in assay [1] (first compound 2.53 µM). Also, the relative viability stood at 0.763 in assay [1] (first compound 8 µM); 1.06 in assay [2] (first compound 0.08 µM); 1.08 in assay [2] (first compound 0.253 µM); 1.09 in assay [2] (first compound 2.53 µM); 1.08 in assay [2] (first compound 8 µM).

PC-14: the relative viability with Shikonin + Navitoclax (first compound 0.01 µM) amounted to 1.05; with Shikonin + Navitoclax (first compound 0.1 µM), 1.1; in the assay with Shikonin + Navitoclax (first compound 0.3162 µM), 1.23; with Shikonin + Navitoclax (first compound 1 µM), 1.02; with Shikonin + Dasatinib (first compound 0.01 µM), 0.224; with Shikonin + Dasatinib (first compound 0.1 µM) it was 0.258. Besides, the relative viability is 0.263 in the assay with Shikonin + Dasatinib (first compound 0.3162 µM); 0.24 in the assay with Shikonin + Dasatinib (first compound 1 µM); 0.529 in assay [1] (first compound 0.08 µM); 0.598 in assay [1] (first compound 0.253 µM); 0.598 in assay [1] (first compound 0.8 µM); 0.6 in assay [1] (first compound 2.53 µM). Further, the relative viability was found to be 0.551 in assay [1] (first compound 8 µM); 0.149 in assay [2] (first compound 0.08 µM); 0.171 in assay [2] (first compound 0.253 µM); 0.138 in assay [2] (first compound 0.8 µM); 0.141 in assay [2] (first compound 2.53 µM); 0.163 in assay [2] (first compound 8 µM).

RERF-LC-KJ: the relative viability in the assay with Shikonin + Navitoclax (first compound 0.01 µM) was 0.835; with Shikonin + Navitoclax (first compound 0.1 µM), 0.996; with Shikonin + Navitoclax (first compound 0.3162 µM) it was 0.758; with Shikonin + Navitoclax (first compound 1 µM) it was 1.11; with Shikonin + Dasatinib (first compound 0.01 µM), 0.991; with Shikonin + Dasatinib (first compound 0.1 µM), 0.975. The relative viability in the assay with Shikonin + Dasatinib (first compound 0.3162 µM) is 0.834; in the assay with Shikonin + Dasatinib (first compound 1 µM) it was 0.661; in assay [1] (first compound 0.08 µM), 0.505; in assay [1] (first compound 0.253 µM) it was 0.495; in assay [1] (first compound 0.8 µM) it was 0.546; in assay [1] (first compound 2.53 µM), 0.509. Moreover, the relative viability in assay [1] (first compound 8 µM) was found to be 0.474; in assay [2] (first compound 0.08 µM) it was 0.502; in assay [2] (first compound 0.253 µM), 0.478; in assay [2] (first compound 0.8 µM), 0.517; in assay [2] (first compound 2.53 µM), 0.48; in assay [2] (first compound 8 µM), 0.466.

For SK-LU-1, the relative viability with Shikonin + Navitoclax (first compound 0.01 µM) was found to be 0.966; in the assay with Shikonin + Navitoclax (first compound 0.1 µM) it was 0.972; in the assay with Shikonin + Navitoclax (first compound 0.3162 µM), 1.08; with Shikonin + Navitoclax (first compound 1 µM), 0.589; with Shikonin + Dasatinib (first compound 0.01 µM), 0.164; with Shikonin + Dasatinib (first compound 0.1 µM), 0.191. For the same cell line, the relative viability in the assay with Shikonin + Dasatinib (first compound 0.3162 µM) worked out at 0.182; in the assay with Shikonin + Dasatinib (first compound 1 µM), 0.186; in assay [1] (first compound 0.08 µM) it was 0.35; in assay [1] (first compound 0.253 µM) it was 0.41; in assay [1] (first compound 0.8 µM) it was 0.352; in assay [1] (first compound 2.53 µM) it was 0.49. Moreover, the relative viability in assay [1] (first compound 8 µM) was determined as 0.346; in assay [2] (first compound 0.08 µM), 1; in assay [2] (first compound 0.253 µM), 1.01; in assay [2] (first compound 0.8 µM) it was 1.04; in assay [2] (first compound 2.53 µM), 0.983; in assay [2] (first compound 8 µM), 0.915.

SK-MES-1: the relative viability worked out at 1.25 with Shikonin + Navitoclax (first compound 0.01 µM); 1.19 in the assay with Shikonin + Navitoclax (first compound 0.1 µM); 1.29 with Shikonin + Navitoclax (first compound 0.3162 µM); 1.29 with Shikonin + Navitoclax (first compound 1 µM); 0.26 with Shikonin + Dasatinib (first compound 0.01 µM); 0.453 with Shikonin + Dasatinib (first compound 0.1 µM). Besides, the relative viability turned out to be 0.323 with Shikonin + Dasatinib (first compound 0.3162 µM); 0.375 with Shikonin + Dasatinib (first compound 1 µM); 0.855 in assay [1] (first compound 0.08 µM); 0.959 in assay [1] (first compound 0.253 µM); 0.962 in assay [1] (first compound 0.8 µM); 0.92 in assay [1] (first compound 2.53 µM). Besides, the relative viability worked out at 0.872 in assay [1] (first compound 8 µM); 1.05 in assay [2] (first compound 0.08 µM); 0.915 in assay [2] (first compound 0.253 µM); 0.819 in assay [2] (first compound 0.8 µM); 1.03 in assay [2] (first compound 2.53 µM); 0.912 in assay [2] (first compound 8 µM).
